Experimental findings from patent publication US4686220A, “Substituted 2-[b-substituted-amino)-ethylamino]-1,4-naphthalenediones for treating asthma, allergic diseases and inflammation in warm-blooded animals” (American Cyanamid Company, priority 1985, dated 1987) are described below.

The target of one assay is T1, Neutrophil Lipoxygenase (Cavia porcellus, UniProt A0A286X958).
T1 construct: endogenous in cells; host or cells: guinea pig peritoneal neutrophils
T1 sequence (A0A286X958 1-674): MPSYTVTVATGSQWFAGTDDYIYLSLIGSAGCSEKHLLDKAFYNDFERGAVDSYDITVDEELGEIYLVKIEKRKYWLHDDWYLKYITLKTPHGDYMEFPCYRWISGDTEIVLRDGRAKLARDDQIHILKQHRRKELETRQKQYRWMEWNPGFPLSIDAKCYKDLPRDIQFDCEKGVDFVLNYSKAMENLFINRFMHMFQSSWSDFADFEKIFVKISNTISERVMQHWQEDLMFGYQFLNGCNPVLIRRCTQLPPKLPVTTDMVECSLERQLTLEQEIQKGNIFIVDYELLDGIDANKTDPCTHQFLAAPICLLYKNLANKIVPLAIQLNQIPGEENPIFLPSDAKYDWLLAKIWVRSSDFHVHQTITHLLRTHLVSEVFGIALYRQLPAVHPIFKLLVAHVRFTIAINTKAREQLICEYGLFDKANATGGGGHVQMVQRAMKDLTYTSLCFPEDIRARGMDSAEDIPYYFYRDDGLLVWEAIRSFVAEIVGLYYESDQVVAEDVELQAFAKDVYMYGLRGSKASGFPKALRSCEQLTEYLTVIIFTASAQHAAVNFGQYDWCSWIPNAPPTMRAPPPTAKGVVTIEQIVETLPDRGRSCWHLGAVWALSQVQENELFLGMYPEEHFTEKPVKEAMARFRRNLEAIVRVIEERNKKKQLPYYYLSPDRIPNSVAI
Description: Inhibition of Neutrophil Lipoxygenase from Immunologically Stimulated Guinea Pig Neutrophiles (LTB4 and 5-HETE). Format: cell-based. The following applies: 10 μg/ml, 100 μM arachidonic acid and 20 μM A23187, the lower the percentage, the more active. The method, then:
In this assay 3×10^7 peritoneal neutrophils derived from guinea pigs were incubated at 37° C. in Dulbeccos buffer containing 50 mM tris buffer (pH 7.4). Five minutes before the addition of 100 μM arachidonic acid and 20 μM calcium ionophore (A23187), control vehicle or the test compounds were added to the neutrophils at a concentration of 10 μg/ml. Three minutes after the addition of arachidonic acid and calcium ionophore the total lipid was partitioned into chloroform after adjusting the pH to 3 with citric acid and the addition of equal parts of methanol and chloroform. The 5-HETE and LTB4 were resolved by HPLC using a 5 μM, 4×25 cm octadecyl silica column (IBM Instruments) with 70-80% methanol in water adjusted to pH 3.0 with acetic acid. As the mobile phase was pumped at 1.0 ml/minute, LTB4 and 5-HETE were detected by absorbance at 270 and 236 nm, respectively. LTB4 and 5-HETE were quantitated by comparison with the control and the results were expressed as a percent of control.

Assay [1] concerns Immunologically Stimulated Human Basophils. Description: Inhibition of Histamine Release from Immunologically Stimulated Human Basophils. As to conditions: anti-IgE or antigen stimulated, 60 min, 37° C., read-out: ED50 (concentration which causes 50% inhibition of histamine release). Format: cell-based. The method, then:
The novel compounds of this invention have been tested by the procedure of Lichtenstein, L. M. and Osler, A. G., J. Exp. Med., 120, 507-530 (1964), which evaluates the ability of compounds to inhibit mediator (histamine) release from immunologically stimulated human basophils. 10X Concentrated Tris Buffer Dissolve 140.3 g of sodium chloride, 7.45 g of potassium chloride and 74.5 g of Trizma-Tris Pre-Set, Reagent Grade, pH 7.6, at 25° C. (Sigma Chemical Co.) in sufficient water to give a final volume of 2 liters. Human Albumin (Sigma Chemical Co.) (30 mg/ml) Calcium and Magnesium Stocks Made to 0.075M and 0.5M respectively, with calcium chloride dihydrate and magnesium chloride hexahydrate. Tris-A Buffer A 10 ml portion of 10X Tris Buffer and 1.0 ml of human albumin are diluted to 100 ml with water. Tris ACM Buffer A 10 ml portion of 10X Tris Buffer, 1.0 ml of human albumin, 0.8 ml of calcium stock and 0.2 ml of magnesium stock are diluted to 100 ml with water. Rabbit Antihuman IgE Behring Diagnostics (Generally used at 10 μg protein/ml final concentration.) House Dust Mite Extract (Dermatophagoides Farinae) Strength 1:100 (w:v) allergenic extract, Hollister-Stier Labs. Generally this is diluted 1:1000 to 1:10,000 (considering the vial as stock). Other Allergens Intradermal solutions or intramuscular preparations for hyposensitization, Hollister-Stier Labs. The final concentration used is on the order of 1 PNU/ml. Separation of Leukocytes from Human Blood and Challenge Eighty milliliters of blood is withdrawn from subjects with known histamine release to anti-IgE, ragweed antigen or other specific allergen, using four 20 ml heparinized tubes. This 80 ml of blood is mixed with 20 ml of saline containing 0.6 g of dextrose and 1.2 g of dextran. The blood is allowed to sediment at room temperature in two 50 ml polycarbonate centrifuge tubes until a sharp interface develops between the red cells and plasma (60-90 minutes). The plasma (top) layer from each tube is withdrawn by pipet and transferred to respective 50 ml polycarbonate tubes. The plasma is centrifuged for 8 minutes at 110×G at 4° C. The supernatant is carefully poured off as completely as possible and the cell button is resuspended in 2-3 ml of Tris-A buffer using a siliconized Pasteur pipet. The resuspension is accomplished by drawing the liquid gently in an out of the pipet, with the tip below the liquid, until an even suspension of cells is obtained. Sufficient Tris-A buffer is then added to bring the volume in the tube to about 45 ml and the tube is centrifuged at 110×G for 8 minutes at 4° C. The supernatant is poured off and the cell button is resuspended and centrifuged as described above. The supernatant is poured off and the cell button suspended in 2-3 ml of Tris-ACM buffer to make the final volume sufficient to allow addition to the reaction tubes. Reaction tubes containing anti-IgE or antigens, either alone or with test compound in a total volume of 0.2 ml are prepared and placed in a 37° C. bath. The cells are warmed to 37° C. and frequently swirled to ensure an even suspension, while 1.0 ml aliquots are added to each reaction tube. The tubes are then incubated for 60 minutes at 37° C., vortexing the tubes gently every 15 minutes to keep the cells evenly suspended. When the reaction is complete, the tubes are centrifuged at 4° C. for 10 minutes at 1500 rpm to sediment the cells. One ml aliquots of supernatant are transferred to 12 mm by 75 mm polyethylene tubes and 0.2 ml of 8% perchloric acid is added to each tube. Blanks and totals are included in each test. The blanks have cells and all reagents except antigen or anti-IgE. The totals contain 0.24 ml of 8% perchloric acid, one ml of cells and 0.2 ml of buffer. All samples are then centrifuged to remove the precipitate protein. Assay of Released Histamine by the Automated Fluorometric Method This automated method has been described by Siraganian, R. P., in Anal. Biochem., 57, 383 (1974) and J. Immunol. […]

Where a name gives a salt, the structure may show the parent alone. Read-outs that look alike come from different tables or passages of the source.

For `CCOC(=O)N1CCN(C2=C(Cl)C(=O)c3ccccc3C2=O)CC1` [Example 1, 4-(3-Chloro-1,4-dioxo-2-naphthyl)-1-piperazinecarboxylic acid, ethyl ester], at Neutrophil Lipoxygenase, the “5-HETE, % of Control” value was 0 % of Control and the “LTB4, % of Control” value was 0 % of Control. For the same compound, the IC50 in assay [1] (ethyl ester) worked out at 5.5 µM.
Consider `CN(CCN(C)C1=C(Cl)C(=O)c2ccccc2C1=O)Cc1ccccc1` [Example 2, 2-Chloro-3-[methyl[2-[methyl(phenylmethyl)amino]ethyl]amino]-1,4-naphthalenedione, hydrochloride], for which the IC50 in assay [1] (Homo sapiens, 1 h) came out at 4 µM.
As to `O=C1C(Cl)=C(N2CCN(Cc3ccccc3)CC2)C(=O)c2ccccc21` [Example 5, 2-chloro-3-[4-(phenylmethyl)-1-piperazinyl]-1,4-naphthalenedione], at Neutrophil Lipoxygenase, the “5-HETE, % of Control” value was 0 % of Control and the “LTB4, % of Control” value is reported as 0 % of Control. The IC50 in assay [1] (Homo sapiens, 1 h) came to 10.4 µM.
`O=C1C(Cl)=C(N2CCN(CC(=O)N3CCOCC3)CC2)C(=O)c2ccccc21` [Example 6, 4-[[4-(3-chloro-1,4-dihydro-1,4-dioxo-2-naphthalenyl)-1-piperazinyl]acetyl]morpholine]: the IC50 in assay [1] (Homo sapiens, 1 h) came to 20.6 µM.
`O=C1C(Cl)=C(N2CCN(CC(=O)N3CCCC3)CC2)C(=O)c2ccccc21` [Example 7, 1-[[4-(3-chloro-1,4-dihydro-1,4-dioxo-2-naphthalenyl)-1-piperazinyl]acetyl]pyrrolidine]: in assay [1] (Homo sapiens, 1 h), the IC50 is 14.9 µM.
On to `O=C1C(Cl)=C(N2CCN(c3ccccn3)CC2)C(=O)c2ccccc21` [Example 8, 2-chloro-3-[4-(2-pyridinyl)-1-piperazinyl]-1,4-naphthalenedione, hydrochloride], for which the remaining activity at 10 µg/mL at Neutrophil Lipoxygenase (read-out: 5-HETE, % of Control) amounted to 1.3%; on Neutrophil Lipoxygenase (read-out: LTB4, % of Control), 6.1%. Further, in assay [1] (Homo sapiens, 1 h), the IC50 is 4.6 µM.
For `CN(CCNCc1nc2ccccc2s1)C1=C(Cl)C(=O)c2ccccc2C1=O` [Example 9, 2-[[2-(2-benzothiazolylmethylamino)ethyl]methylamino]-3-chloro-1,4-naphthalenedione] the same measures were 0.2%, 0% and 6.4 µM.
For `CC1CN(C2=C(Cl)C(=O)c3ccccc3C2=O)CCN1` (centres unmarked) [Example 14, 2-chloro-3-(3-methyl-1-piperazinyl)-1,4-naphthalenedione], the IC50 in assay [1] (Homo sapiens, 1 h) came to 3 µM.
Take `Cl.O=C1C(Cl)=C(N2CCN(Cc3ccccc3)CC2)C(=O)c2ccccc21` [Example 15, 2-chloro-3-[4-(phenylmethyl)-1-piperazinyl]-1,4-naphthalenedione, hydrochloride]: at Neutrophil Lipoxygenase, the “5-HETE, % of Control” value is 35.6 % of Control and the “LTB4, % of Control” value is on record as 28.3 % of Control. In assay [1] (hydrochloride), the IC50 stood at 13.4 µM.
On to `CCOC(=O)N1CCN(C2=C(Cl)C(=O)c3ccccc3C2=O)CC1.Cl` [Example 16, 4-(3-chloro-1,4-dihydro-1,4-dioxo-2-naphthalenyl)-1-piperazinecarboxylic acid, ethyl ester, hydrochloride], for which, at Neutrophil Lipoxygenase, the “5-HETE, % of Control” value was 6.9 % of Control and the “LTB4, % of Control” value is listed as 9.3 % of Control. The IC50 in assay [1] (e, hydrochloride) came to 1.5 µM.
Regarding `O=C1C(Cl)=C(N2CCN(c3nc4ccccc4s3)CC2)C(=O)c2ccccc21` [Example 17, 2-[4-(2-benzothiazolyl)-1-piperazinyl]-3-chloro-1,4-naphthalenedione, hydrochloride], the remaining activity at 10 µg/mL at Neutrophil Lipoxygenase (read-out: 5-HETE, % of Control) came out at 23.1%; at Neutrophil Lipoxygenase (read-out: LTB4, % of Control), 32.6%. The IC50 in assay [1] (Homo sapiens, 1 h) stood at 5.4 µM.
For `CC(C)COC(=O)N1CCN(C2=C(Cl)C(=O)c3ccccc3C2=O)CC1` [Example 33, 4-(3-Chloro-1,4-dihydro-1,4-dioxo-2-naphthalenyl)-1-piperazinecarboxylic acid, 2-methylpropyl ester] the same measures were 31.6%, 27.4% and 16.5 µM.
Take `O=C1C(Cl)=C(N2CCN(C(=O)c3ccccc3Cl)CC2)C(=O)c2ccccc21` [Example 34, 1-(2-chlorobenzoyl)-4-(3-chloro-1,4-dihydro-1,4-dioxo-2-naphthalenyl)piperazine]: the IC50 in assay [1] (Homo sapiens, 1 h) is 1.8 µM.
